Assay results: PMC11882969 (Nature Communications, 2025)
Where “and” joins values, the source holds several entries; their conditions need not be identical. Equal entries are not always repeated.

Target: hCB2 (Homo sapiens, UniProt P34972)
Test: bioSensAll ebBRET signaling profiling, hCB2
Type: cell-based
Set-up: host or cells: HEK293SL cells, transient PEI transfection
Conditions: for RE, relative efficacy: vs CP-55,940; for G13 hCB2 / G15 hCB2 / Gq hCB2 / Gs hCB2: raw signal
[1] = Log [Compound] (M) not printed (line after -13)

hCB2, sequence (P34972 whole entry): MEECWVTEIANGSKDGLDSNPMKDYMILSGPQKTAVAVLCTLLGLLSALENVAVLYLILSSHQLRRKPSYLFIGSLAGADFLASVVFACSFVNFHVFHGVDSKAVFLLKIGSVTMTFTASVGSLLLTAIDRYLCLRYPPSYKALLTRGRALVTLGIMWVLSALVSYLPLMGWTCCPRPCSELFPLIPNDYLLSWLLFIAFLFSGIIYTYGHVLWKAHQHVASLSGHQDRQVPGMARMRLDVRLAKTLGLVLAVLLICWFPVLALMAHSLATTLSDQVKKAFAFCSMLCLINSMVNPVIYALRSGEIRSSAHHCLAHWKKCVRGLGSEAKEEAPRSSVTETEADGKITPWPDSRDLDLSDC

COC(=O)[C@@](C)(NC(=O)c1cc(C)n(-c2cccc(C(F)(F)F)c2)n1)c1cccs1 [‘1350]
Barr2+GRK2 hCB2 (Log [Compound] (M) -4.22186): 44.1172 and 39.7347
Gi1 hCB2 (Log [Compound] (M) -4.22186): 74.4771 and 77.5324
Gi2 hCB2 (Log [Compound] (M) -4.22186): 66.5499
GoB hCB2 (Log [Compound] (M) -4.22186): 56.9391 and 70.3563
Gz hCB2 (Log [Compound] (M) -4.22186): 58.5774 and 64.6863
Barr2+GRK2 hCB2 (Log [Compound] (M) -4.63927): 32.763 and 29.7899
Gi1 hCB2 (Log [Compound] (M) -4.63927): 72.942 and 75.6692
Gi2 hCB2 (Log [Compound] (M) -4.63927): 60.7879
GoB hCB2 (Log [Compound] (M) -4.63927): 56.4664 and 67.1616
Gz hCB2 (Log [Compound] (M) -4.63927): 78.3049 and 53.5883
Barr2+GRK2 hCB2 (Log [Compound] (M) -5.05788): 29.8124 and 18.7956
Gi1 hCB2 (Log [Compound] (M) -5.05788): 74.0429 and 76.6089
Gi2 hCB2 (Log [Compound] (M) -5.05788): 58.4001
GoB hCB2 (Log [Compound] (M) -5.05788): 54.53 and 64.4448
Gz hCB2 (Log [Compound] (M) -5.05788): 66.9683 and 41.1092
Barr2+GRK2 hCB2 (Log [Compound] (M) -5.47381): 34.9292 and 20.8945
Gi1 hCB2 (Log [Compound] (M) -5.47381): 72.8179 and 79.0878
Gi2 hCB2 (Log [Compound] (M) -5.47381): 60.2299
GoB hCB2 (Log [Compound] (M) -5.47381): 53.5084 and 63.1367
Gz hCB2 (Log [Compound] (M) -5.47381): 56.2566 and 45.2442
Barr2+GRK2 hCB2 (Log [Compound] (M) -5.89285): 30.1859 and 15.2974
Gi1 hCB2 (Log [Compound] (M) -5.89285): 75.9346 and 71.3757
Gi2 hCB2 (Log [Compound] (M) -5.89285): 59.8925
GoB hCB2 (Log [Compound] (M) -5.89285): 55.4448 and 59.3006
Gz hCB2 (Log [Compound] (M) -5.89285): 73.8416 and 43.9289
Barr2+GRK2 hCB2 (Log [Compound] (M) -6.31878): 31.1196 and 18.9955
Gi1 hCB2 (Log [Compound] (M) -6.31878): 70.1509 and 73.9032
Gi2 hCB2 (Log [Compound] (M) -6.31878): 59.7627
GoB hCB2 (Log [Compound] (M) -6.31878): 55.1551 and 56.3448
Gz hCB2 (Log [Compound] (M) -6.31878): 71.9968 and 45.6141
Barr2+GRK2 hCB2 (Log [Compound] (M) -6.72585): 25.5172 and 13.5483
Gi1 hCB2 (Log [Compound] (M) -6.72585): 69.1585 and 77.5649
Gi2 hCB2 (Log [Compound] (M) -6.72585): 61.5795
GoB hCB2 (Log [Compound] (M) -6.72585): 54.5452 and 57.5649
Gz hCB2 (Log [Compound] (M) -6.72585): 45.4258 and 40.2871
Barr2+GRK2 hCB2 (Log [Compound] (M) -7.14267): 30.2979 and 16.2969
Gi1 hCB2 (Log [Compound] (M) -7.14267): 65.6232 and 81.2265
Gi2 hCB2 (Log [Compound] (M) -7.14267): 58.2833
GoB hCB2 (Log [Compound] (M) -7.14267): 51.8616 and 63.3506
Gz hCB2 (Log [Compound] (M) -7.14267): 50.5436 and 34.8285
Barr2+GRK2 hCB2 (Log [Compound] (M) -7.55284): 26.2642 and 26.7415
Gi1 hCB2 (Log [Compound] (M) -7.55284): 64.5377 and 66.7095
Gi2 hCB2 (Log [Compound] (M) -7.55284): 59.5551
GoB hCB2 (Log [Compound] (M) -7.55284): 57.4727 and 58.7094
Gz hCB2 (Log [Compound] (M) -7.55284): 50.2461 and 38.3305
Barr2+GRK2 hCB2 (Log [Compound] (M) -8): 20.9979 and 17.0465
Gi1 hCB2 (Log [Compound] (M) -8): 54.8465 and 52.1925
Gi2 hCB2 (Log [Compound] (M) -8): 54.4549
GoB hCB2 (Log [Compound] (M) -8): 47.1654 and 53.6784
Barr2+GRK2 hCB2 (Log [Compound] (M) -8.22186): 23.9859 and 16.2469
Gi1 hCB2 (Log [Compound] (M) -8.22186): 56.5677 and 32.8473
Gi2 hCB2 (Log [Compound] (M) -8.22186): 55.2855
GoB hCB2 (Log [Compound] (M) -8.22186): 43.0943 and 48.7228
Gz hCB2 (Log [Compound] (M) -8.22186): 50.1568 and 46.2389
Gi1 hCB2 (Log [Compound] (M) -8.39794): 38.2861 and 47.0726
Gi2 hCB2 (Log [Compound] (M) -8.39794): 44.5921
GoB hCB2 (Log [Compound] (M) -8.39794): 29.1733 and 38.4595
Gi1 hCB2 (Log [Compound] (M) -8.68787): 27.0908 and 14.9764
Gi2 hCB2 (Log [Compound] (M) -8.68787): 26.6573
GoB hCB2 (Log [Compound] (M) -8.68787): 22.9675 and 22.9513
Gi2 hCB2 (Log [Compound] (M) -9.15521): 7.477
Gi2 hCB2 (Log [Compound] (M) -9.61989): -6.111
Gi2 hCB2 (Log [Compound] (M) -10.0969): -9.55
Gi2 hCB2 (Log [Compound] (M) -10.5529): -9.589
Gi2 hCB2 (Log [Compound] (M) -11.0177): -8.914
Gi2 hCB2 (Log [Compound] (M) -11.4949): -12.1971
Gi2 hCB2 (Log [Compound] (M) -11.9208): -11.8078
Gi2 hCB2 (Log [Compound] (M) -12.3979): -13.4949
Gi2 hCB2 (Log [Compound] (M) -12.8861): -11.678
Gi2 hCB2 (Log [Compound] (M) -13): -15.0781
Gz hCB2 (Log [Compound] (M) -13): -3.497
Barr2+GRK2 hCB2 [1]: -10.739
GoB hCB2 [1]: 0.1984
Gz hCB2 [1]: 0.9754
pEC50 [95% CI] (hCB2 Gi1): 8.45 [8.4 – 8.5]
RE, relative efficacy (hCB2 Gi1): 0.29
pEC50 [95% CI] (hCB2 Gi2): 8.79 [8.7 – 8.9]
RE, relative efficacy (hCB2 Gi2): 0.40
pEC50 [95% CI] (hCB2 GoB): 8.58 [8.5 – 8.7]
RE, relative efficacy (hCB2 GoB): 0.40
RE, relative efficacy (hCB2 Gz): 0.22
RE, relative efficacy (hCB2 ßarr2+GRK2): 0.92
G13 hCB2 (Log [Compound] (M) -4.22186): 370
G15 hCB2 (Log [Compound] (M) -4.22186): 861
Gq hCB2 (Log [Compound] (M) -4.22186): 1817
Gs hCB2 (Log [Compound] (M) -4.22186): 9372
G13 hCB2 (Log [Compound] (M) -4.63927): 318
G15 hCB2 (Log [Compound] (M) -4.63927): 875
Gq hCB2 (Log [Compound] (M) -4.63927): 1909
Gs hCB2 (Log [Compound] (M) -4.63927): 9159
G13 hCB2 (Log [Compound] (M) -5.05788): 339
